Data as given in article PMC8957230 (ADMET & DMPK, 2019).
Values after ≈ are worked out from the molar mass of the structure shown. Where two headings read alike, the source gives them in different places. Marks after values point to notes of the source that are not given here. Each block holds one molecule with its values, some of them ahead of it.

What was measured:
[1] = cited from earlier work
[2] = parameters: method as in earlier work; details: 5 mM sodium taurocholate and […] lecithin in pH 6.8 phosphate buffer; cited from earlier work
[3] = cited from earlier work; remark: listed apart in the source
[4] = Ketoconazole solubility by pH adjustment with HCl (pH-solubility profile); type: physicochemical; details: 25 °C
Procedure: Multiple vials were prepared using different concentration of HCl solutions (0.001M to 1M) so that different pH values could be attained, and, when needed, more amount of free base was added to maintain excess solid in the vials. […] Additional HCl solution and excess ketoconazole were added to the suspension in vial and shaken for another pH point, and the process was repeated until enough points on the pH scale were obtained. More than one suspension in different vials were used to generate a complete profile.

[5] = Solubility in buffered/non-buffered media
Procedure: Cocrystal solubilities were determined at pH 1 solution (0.1 M HCl), pH 2 HCl buffer), pH 5 acetate buffer and pH 8 phosphate buffer. Buffers were prepared according to the United States Pharmacopeia (USP) procedures. […] Aliquots were filtered by 0.45-micron PVDF filter and analyzed by HPLC. The solid phase was analyzed by Raman spectroscopy.

[6] = Ketoconazole solubility with fumaric/succinic acid and 1:1 physical mixtures with coformers; type: physicochemical; details: 1:1 ketoconazole-fumaric acid mixture, 25 °C
Procedure: A series of solutions with different concentrations of acids were prepared and 3 mL quantities of these solutions were distributed in separate glass vials. […] Aliquots of suspensions (0.5-0.7 mL each) were, however, withdrawn from each vial after 4, 24 and 96 h of shaking for analysis of drug concentration by HPLC according to the method described earlier. For the analysis of solid phase, contents of the vials were transferred to 3-mL Eppendorf tubes and centrifuged using Beckman GS 6R centrifuge at 2000 RPM for 5 min. After centrifugation, the supernatants were removed and solid contents were dried in a vacuum oven at 50 °C, which were then analyzed by DSC and Raman spectroscopy.
In this study, different quantities of the mixtures (12 mg to 350 mg) were added to different 20 mL glass vials, and then 5 mL of water was added to each vial. Thus, the volume of water in each vial remained the same and only the amount of material added differed. […] Samples were withdrawn from each vial at 4, 24 and 96 h to measure drug concentration, as described earlier. The solid phase of the vials was analyzed using Raman spectroscopy to determine the identity of equilibrium species. From some of the vials, solid contents were separated by centrifugation, dried in a vacuum oven, and then analyzed by DSC.

[7] = Intrinsic dissolution rate; type: physicochemical; parameters: key: -: Extremely low dissolution rate (practically zero) that could not be calculated with accuracy; details: 25 °C
Procedure: For each determination, 100 mg of powder was compressed into pellet by Carver press at 1 ton pressure for 10 seconds. The apparatus with the exposed surface of the material was immersed into 250 mL of dissolution medium and rotated at 200 RPM. pH of dissolution media during the intrinsic dissolution testing were maintained by two different methods: in one case, unbuffered media were used where either 0.1 M HCl or 0.1 M NaOH were added to keep pH constant at 3, 4 or 5 (±0.15), and in the second case, pH 3, 4 and 5 phthalate buffers prepared according to the USP were used as dissolution media to keep pH constant. Two mL of aliquot was withdrawn at each of 5, 15, 30, 60, 90 and 120 min time points, filtered by 0.45-micron PVDF filter, and analyzed by HPLC for drug concentration.

[8] = average of two
Procedure: Essentially, in the present investigation, about 0.5 mL of buffer was added to 200 mg of powder in a small vial and mixed by vortexing, and then pH was recorded when an equilibrium was reached after 5-10 min of mixing.

[9] = excess cocrystal in water, 25 °C
[10] = initial pH 1.1 (0.1 M HCl), 25 °C
[11] = initial pH 2.1 HCl/KCl buffer, 25 °C
[12] = initial pH 5.0 acetate buffer, 25 °C
[13] = initial pH 7.9 phosphate buffer, 25 °C
[14] = buffers, pH 3 phthalate, 0.5 cm^2
[15] = buffers, pH 4 phthalate, 0.5 cm^2
[16] = unbuffered media, pH 3 kept constant with HCl or NaOH, 0.5 cm^2
[17] = unbuffered media, pH 4 kept constant with HCl or NaOH, 0.5 cm^2
[18] = pH 3 phthalate buffer, initial (bulk) pH 2.93
[19] = pH 5 neutralized phthalate buffer, initial (bulk) pH 4.97
[20] = pH 7 phosphate buffer, initial (bulk) pH 6.97

Molecule: CC(=O)Nc1nc2c(Oc3cc(-c4ccc(C(F)(F)F)cc4)ncn3)cccc2s1 [AMG 517]
pKa [1]: 0.68 | Solubility in FaSIF [2]: 5 µg/mL (≈ 11.6 µM)

Molecule: CC(C)(C)C(=O)OCOP(=O)(COCCn1cnc2c(N)ncnc21)OCOC(=O)C(C)(C)C [adefovir dipivoxil]
Solubility in water [3]: 0.79 mmol/L | pH of saturated solutions [3]: 6.7

Molecule: CCOc1ccccc1C(N)=O [ethenzamide]
Solubility in water [3]: 0.0008 to 0.00085 mg/mL

Molecule: O=C(O)/C=C/C(=O)O [fumaric acid]
pKa, first ionization [1]: 2.74 | pKa, second ionization [1]: 4.17

Molecule: CC(=O)N1CCN(c2ccc(OC[C@H]3CO[C@](Cn4ccnc4)(c4ccc(Cl)cc4Cl)O3)cc2)CC1.Cl.Cl [ketoconazole dihydrochloride salt, ketoconazole dihydrochloride]
Solubility (in words) [3]: very high solubility

solubility ([4]; pH of suspension 3.35, pH lowered using HCl, listed as ketoconazole base): 5429 µg/mL (≈ 10200 µM) | solubility ([4]; suspension in distilled water, pH adjusted with HCl, pH 3.1, aqueous buffer, thermodynamic from solid, pH 3.1, pH adjusted with HCl, read-out: Highest solubility measured): 148000 µg/mL (≈ 279000 µM) | solubility ([4]; suspension in distilled water, pH adjusted with HCl, pH 3.1, aqueous buffer, thermodynamic from solid, pH of suspension 3.1, pH lowered using HCl, read-out: Solubility): 148000 µg/mL (≈ 279000 µM) | solubility ([4]; suspension in distilled water, pH adjusted with HCl, pH 3.35, aqueous buffer, thermodynamic from solid, pH of suspension 3.35, pH lowered using HCl, read-out: Solubility): 5460 µg/mL (≈ 10300 µM) | solubility ([4]; suspension in distilled water, pH adjusted with HCl, pH 3.37, aqueous buffer, thermodynamic from solid, pH of suspension 3.37, pH lowered using HCl, read-out: Solubility): 7100 µg/mL (≈ 13400 µM) | solubility ([4]; suspension in distilled water, pH adjusted with HCl, pH 3.58, aqueous buffer, thermodynamic from solid, pH of suspension 3.58, pH lowered using HCl, read-out: Solubility): 3420 µg/mL (≈ 6440 µM) | solubility ([4]; suspension in distilled water, pH adjusted with HCl, pH 3.81, aqueous buffer, thermodynamic from solid, pH of suspension 3.81, pH lowered using HCl, read-out: Solubility): 1930 µg/mL (≈ 3630 µM) | solubility ([4]; suspension in distilled water, pH adjusted with HCl, pH 4.28, aqueous buffer, thermodynamic from solid, pH of suspension 4.28, pH lowered using HCl, read-out: Solubility): 729 µg/mL (≈ 1370 µM) | solubility ([4]; suspension in distilled water, pH adjusted with HCl, pH 4.48, aqueous buffer, thermodynamic from solid, pH of suspension 4.48, pH lowered using HCl, read-out: Solubility): 345 µg/mL (≈ 649 µM) | solubility ([4]; suspension in distilled water, pH adjusted with HCl, pH 4.56, aqueous buffer, thermodynamic from solid, pH of suspension 4.56, pH lowered using HCl, read-out: Solubility): 354 µg/mL (≈ 666 µM) | solubility ([4]; suspension in distilled water, pH adjusted with HCl, pH 4.95, aqueous buffer, thermodynamic from solid, pH of suspension 4.95, pH lowered using HCl, read-out: Solubility): 178 µg/mL (≈ 335 µM) | solubility ([4]; suspension in distilled water, pH adjusted with HCl, pH 4.99, aqueous buffer, thermodynamic from solid, pH of suspension 4.99, pH lowered using HCl, read-out: Solubility): 175 µg/mL (≈ 329 µM) | solubility ([4]; suspension in distilled water, pH adjusted with HCl, pH 7.12, aqueous buffer, thermodynamic from solid, pH of suspension 7.12, pH lowered using HCl, read-out: Solubility): 5 µg/mL (≈ 9.41 µM) | solubility ([4]; suspension in distilled water, pH adjusted with HCl, pH 7.23, aqueous buffer, thermodynamic from solid, pH of suspension 7.23, pH lowered using HCl, read-out: Solubility): 4 µg/mL (≈ 7.53 µM) | solubility ([4]; suspension in distilled water, pH adjusted with HCl, pH 3.67, pH of suspension 3.67, pH lowered using HCl, read-out: Solubility): 3030 µg/mL (≈ 5700 µM) | solubility ([4]; suspension in distilled water, pH adjusted with HCl, pH 3.71, pH of suspension 3.71, pH lowered using HCl, read-out: Solubility): 2780 µg/mL (≈ 5230 µM) | solubility ([4]; suspension in distilled water, pH adjusted with HCl, pH 7.27, pH of suspension 7.27, pH lowered using HCl, read-out: Solubility): 3 µg/mL (≈ 5.65 µM) | solubility ([4]; suspension in distilled water, pH adjusted with HCl, pH 7.72, pH of suspension 7.72, pH lowered using HCl, read-out: Solubility): 2 µg/mL (≈ 3.76 µM) | solubility ([4]; suspension in distilled water, pH adjusted with HCl, pH 7.92, pH of suspension 7.92, pH lowered using HCl, read-out: Solubility): 3 µg/mL (≈ 5.65 µM) | solubility ([4]; suspension in distilled water, pH adjusted with HCl, pH 8.49, pH of suspension 8.49, pH lowered using HCl, read-out: Solubility): 2 µg/mL (≈ 3.76 µM) | solubility ([4]; suspension in distilled water, pH adjusted with HCl, pH higher than 8, read-out: Intrinsic solubility of the free base (nonprotonated species)): ~2 µg/mL (≈ 3.76 µM) | solubility ([5]; 0.1 M HCl, 25 °C, pH 1.1, simulated gastric fluid, thermodynamic from solid): ~27000 µg/mL (≈ 50800 µM) | solubility ([5]; HCl/KCl buffer, 25 °C, pH 2.1, simulated gastric fluid, thermodynamic from solid): ~3400 µg/mL (≈ 6400 µM) | solubility ([5]; acetate buffer, 25 °C, pH 5, aqueous buffer, thermodynamic from solid): 130 µg/mL (≈ 245 µM) | pH after equilibration [5, 10]: ~2.9 ^* | pH after equilibration [5, 11]: ~3.6 ^* | pH after equilibration [5, 12]: 4.95 | pH after equilibration [5, 13]: 7.82±0.01 | solubility ([5]; phosphate buffer, pH 7.9): 1 µg/mL (≈ 1.88 µM) | solubility at 96 h ([6]; equilibrated 96 h, pH~3.7): ~3000 µg/mL (≈ 5650 µM) | solubility at 4 h ([6]; water, thermodynamic from solid, equilibrated 4 h, no conversion to cocrystal): ~7000 µg/mL (≈ 13200 µM) | Dissolution rate constant [7, 14]: 108 μg.min^-1.cm^-2 | Dissolution rate constant [7, 15]: 45 μg.min^-1.cm^-2 | Dissolution rate constant ([7]; buffers, pH 5 phthalate): - ^** | Dissolution rate constant [7, 16]: 106 μg.min^-1.cm^-2 | Dissolution rate constant [7, 17]: 16 μg.min^-1.cm^-2 | Dissolution rate constant ([7]; unbuffered media, pH 5 kept constant with HCl or NaOH): - ^** | pH h=0 (slurry pH) [8, 18]: 4.17 | pH h=0 (slurry pH) [8, 19]: 5.00 | pH h=0 (slurry pH) [8, 20]: 7.05
Molecule: CC(=O)N1CCN(c2ccc(OCC3COC(Cn4ccnc4)(c4ccc(Cl)cc4Cl)O3)cc2)CC1 (stereo not shown) [ketoconazole]

Molecule: Nc1nnc(-c2cccc(Cl)c2Cl)c(N)n1 [lamotrigine]
Solubility in water [3]: 0.154 mg/mL | pH of the aqueous slurries during the determination of solubility [3]: 6.8 | Solubility in water ([3]; pH of ~5.5, cocrystals at 1:1 ratios): 0.28 mg/mL

Molecule: O=C(O)CCC(=O)O [succinic acid]
pKa, first ionization [1]: 3.93 | pKa, second ionization [1]: 5.30

Molecule: ketoconazole-fumaric acid cocrystal
pH after equilibration [5, 10]: 2.03± 0.01 | solubility ([5]; initial pH 1.1 (0.1 M HCl), 25 °C, average of three determinations): 21540 ± 550 µg/mL | pH after equilibration [5, 11]: 2.89 ± 0.02 | solubility ([5]; initial pH 2.1 HCl/KCl buffer, 25 °C, average of three determinations): 3390 ± 20 µg/mL | pH after equilibration [5, 12]: 4.31 ± 0.02 | solubility ([5]; initial pH 5.0 acetate buffer, 25 °C, average of three determinations): 600 ± 20 µg/mL | pH after equilibration [5, 13]: 7.17 ± 0.01 | solubility ([5]; initial pH 7.9 phosphate buffer, 25 °C, average of three determinations): 3 ± 2 µg/mL | Dissolution rate constant [7, 14]: 108 μg.min^-1.cm^-2 | Dissolution rate constant [7, 15]: 71 μg.min^-1.cm^-2 | Dissolution rate constant ([7]; buffers, pH 5 phthalate, 0.5 cm^2): 51 μg.min^-1.cm^-2 | Dissolution rate constant [7, 16]: 164 μg.min^-1.cm^-2 | Dissolution rate constant [7, 17]: 124 μg.min^-1.cm^-2 | Dissolution rate constant ([7]; unbuffered media, pH 5 kept constant with HCl or NaOH, 0.5 cm^2): 93 μg.min^-1.cm^-2 | pH of saturated solution in water [9]: 4.1 | Solubility in water (as ketoconazole equivalents) ([9]; saturated solution pH 4.1 (fumaric) / 4.2 (succinic)): 2.6 mg/mL | pH h=0 (slurry pH) [8, 18]: 3.13 | pH h=0 (slurry pH) ([8]; pH 4 phthalate buffer, initial (bulk) pH 3.96): 4.08 | pH h=0 (slurry pH) [8, 19]: 4.23 | pH h=0 (slurry pH) [8, 20]: 4.53
